Consider one molecule from ChEMBL document CHEMBL5247627, “1-Methyl-3-((4-(quinolin-4-yloxy)phenyl)amino)-1H-pyrazole-4-carboxamide derivatives as new rearranged during Transfection (RET) kinase inhibitors capable of suppressing resistant mutants in solvent-front regions” (Eur J Med Chem, 2022).

Activity calls are given as the source filed them. No cut-off for these calls is given here.

The subject of experiment [1] is BaF3. As to the kind of experiment: Induction of apoptosis in mouse BaF3 cells harbouring CCDC6-RET G810C assessed as viable cells measured at 33.3 nM for 48 hrs by Annexin V-FITC staining based Guava easyCyte flow cytometric analysis (reference value: 90.90 %). Format: functional. The note with it: read-out: Activity. On the technique in general: A flow cytometer gives signals particle by particle.

The subject of experiment [2] is BaF3. As to the kind of experiment: Antiproliferative activity against mouse BaF3 cells expressing rearranged during transfection kinase V804M-CCDC6 incubated for 74 to 76 hrs by cell counting kit 8 method. (Tetrazolium assays rely on reduction of a dye to a coloured formazan, in cell work by metabolically active cells.)
Experiment [3] deals with BaF3. The experiment is described as follows: Antiproliferative activity against mouse BaF3 cells expressing rearranged during transfection kinase G810C-CCDC6 incubated for 74 to 76 hrs by cell counting kit 8 method.
The subject of experiment [4] is BaF3. The experiment is described as follows: Antiproliferative activity against mouse BaF3 cells expressing wildtype rearranged during transfection kinase-KIF5B incubated for 74 to 76 hrs by cell counting kit 8 method.
The subject of experiment [5] is BaF3. As to the kind of experiment: Antiproliferative activity against mouse BaF3 cells expressing rearranged during transfection kinase V804M-KIF5B incubated for 74 to 76 hrs by cell counting kit 8 method.
The target of experiment [6] is Proto-oncogene tyrosine-protein kinase receptor Ret/Coiled-coil domain-containing protein 6 (Mus musculus) (UniProt P35546+D3YZP9). The experiment is described as follows: Inhibition of wild type rearranged during transfection kinase/CCDC6 phosphorylation in mouse BaF3 cells measured at 100 nM for 4 hrs by Western blot analysis. The experiment is classed as cell-based. On the technique in general: A western blot detects proteins with antibodies after separation by electrophoresis.
Proto-oncogene tyrosine-protein kinase receptor Ret/Coiled-coil domain-containing protein 6 (Mus musculus), sequence (D3YZP9 whole entry, looked up, the tested form may be a part): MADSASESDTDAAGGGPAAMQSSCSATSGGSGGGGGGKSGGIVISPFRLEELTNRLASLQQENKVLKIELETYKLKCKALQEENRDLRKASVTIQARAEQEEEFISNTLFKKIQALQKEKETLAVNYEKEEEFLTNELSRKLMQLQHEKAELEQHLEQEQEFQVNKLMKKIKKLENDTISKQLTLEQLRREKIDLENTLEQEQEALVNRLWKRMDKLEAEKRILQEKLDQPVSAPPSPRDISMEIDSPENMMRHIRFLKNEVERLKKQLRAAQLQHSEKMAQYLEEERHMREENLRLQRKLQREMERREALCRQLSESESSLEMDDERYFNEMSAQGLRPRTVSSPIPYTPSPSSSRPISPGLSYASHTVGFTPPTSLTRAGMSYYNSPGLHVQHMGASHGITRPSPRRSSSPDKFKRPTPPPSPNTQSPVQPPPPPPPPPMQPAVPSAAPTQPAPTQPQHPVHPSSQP
Proto-oncogene tyrosine-protein kinase receptor Ret/Coiled-coil domain-containing protein 6 (Mus musculus), sequence (P35546 whole entry, looked up, the tested form may be a part): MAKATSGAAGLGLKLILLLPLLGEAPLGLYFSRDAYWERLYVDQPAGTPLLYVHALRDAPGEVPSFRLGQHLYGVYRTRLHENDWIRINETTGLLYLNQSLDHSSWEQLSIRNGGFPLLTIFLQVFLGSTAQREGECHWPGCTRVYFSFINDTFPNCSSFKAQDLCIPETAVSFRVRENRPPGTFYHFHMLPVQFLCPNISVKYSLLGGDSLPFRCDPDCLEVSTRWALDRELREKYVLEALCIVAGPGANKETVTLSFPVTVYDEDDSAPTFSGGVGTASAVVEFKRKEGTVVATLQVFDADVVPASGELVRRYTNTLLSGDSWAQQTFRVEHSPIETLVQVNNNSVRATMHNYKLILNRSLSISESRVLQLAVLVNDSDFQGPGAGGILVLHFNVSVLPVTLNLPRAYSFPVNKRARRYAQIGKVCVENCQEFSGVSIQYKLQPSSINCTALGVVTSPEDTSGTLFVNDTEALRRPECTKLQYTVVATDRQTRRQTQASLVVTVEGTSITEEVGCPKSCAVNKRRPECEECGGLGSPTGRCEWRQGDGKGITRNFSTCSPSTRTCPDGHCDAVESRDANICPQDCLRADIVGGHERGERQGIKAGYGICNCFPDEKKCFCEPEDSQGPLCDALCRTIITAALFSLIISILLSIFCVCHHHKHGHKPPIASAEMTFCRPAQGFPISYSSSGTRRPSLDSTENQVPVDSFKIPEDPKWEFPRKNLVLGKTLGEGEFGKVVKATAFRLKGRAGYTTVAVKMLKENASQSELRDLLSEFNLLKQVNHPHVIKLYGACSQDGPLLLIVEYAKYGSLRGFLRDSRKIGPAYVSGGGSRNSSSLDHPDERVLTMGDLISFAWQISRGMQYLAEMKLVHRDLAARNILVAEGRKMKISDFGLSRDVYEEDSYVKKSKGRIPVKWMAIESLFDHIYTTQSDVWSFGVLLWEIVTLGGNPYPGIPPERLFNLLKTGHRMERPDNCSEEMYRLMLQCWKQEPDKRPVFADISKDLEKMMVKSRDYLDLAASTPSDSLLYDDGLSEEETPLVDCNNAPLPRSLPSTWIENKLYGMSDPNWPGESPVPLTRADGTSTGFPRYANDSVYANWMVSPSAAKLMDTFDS

Experiment [7] concerns BaF3. The experiment is described as follows: Induction of apoptosis in mouse BaF3 cells harbouring CCDC6-RET G810C assessed as viable cells measured at 100 nM for 48 hrs by Annexin V-FITC staining based Guava easyCyte flow cytometric analysis (reference value: 90.90 %). The experiment is classed as functional. As to conditions: read-out: Activity.
The subject of experiment [8] is BaF3. As to the kind of experiment: Induction of apoptosis in mouse BaF3 cells harbouring CCDC6-RET G810C assessed as viable cells measured at 300 nM for 48 hrs by Annexin V-FITC staining based Guava easyCyte flow cytometric analysis (reference value: 90.90 %). Format: functional. As to conditions: read-out: Activity.
Experiment [9] concerns BaF3. As to the kind of experiment: Induction of apoptosis in mouse BaF3 cells harbouring CCDC6-RET G810R assessed as early apoptotic cells measured at 33.3 nM for 48 hrs by Annexin V-FITC staining based Guava easyCyte flow cytometric analysis (reference value: 6.46 %). The experiment is classed as functional.
Experiment [10] has as its system BaF3. The experiment is described as follows: Induction of apoptosis in mouse BaF3 cells harbouring CCDC6-RET G810R assessed as necrotic cells measured at 33.3 nM for 48 hrs by Annexin V-FITC staining based Guava easyCyte flow cytometric analysis (reference value: 0.64 %). The experiment is classed as functional.
Experiment [11] relates to BaF3. As to the kind of experiment: Induction of apoptosis in mouse BaF3 cells harbouring CCDC6-RET G810R assessed as late apoptotic cells measured at 100 nM for 48 hrs by Annexin V-FITC staining based Guava easyCyte flow cytometric analysis (reference value: 3.4 %). The experiment is classed as functional.
The test system of experiment [12] is BaF3. The experiment is described as follows: Induction of apoptosis in mouse BaF3 cells harbouring CCDC6-RET G810R assessed as early apoptotic cells measured at 300 nM for 48 hrs by Annexin V-FITC staining based Guava easyCyte flow cytometric analysis (reference value: 6.46 %). Format: functional.
Experiment [13] concerns BaF3. The experiment is described as follows: Induction of apoptosis in mouse BaF3 cells harbouring CCDC6-RET G810R assessed as necrotic cells measured at 300 nM for 48 hrs by Annexin V-FITC staining based Guava easyCyte flow cytometric analysis (reference value: 0.64 %). Format: functional.
Experiment [14] has as its system BaF3. The note with it: Mus musculus, dose 100.0 nM, time 4.0 hrs.
Experiment [15] relates to BaF3. As to conditions: Mus musculus, dose <= 100.0 nM, time 4.0 hrs.
The test system of experiment [16] is BaF3. As to conditions: Mus musculus, dose <= 100.0 nM, time 4.0 hrs. This is another data set of the same source.
Experiment [17] concerns BaF3. As to conditions: Mus musculus, CB17-SCID, Tumor/tissue, dose 10-30 mg/kg, route ip, time 13.0 day.

One may read the IC50 as the concentration that gives 50% inhibition. High values mean weaker potency, low ones greater potency. On to `COc1cc2nccc(Oc3ccc(Nc4nn(C)cc4C(=O)NC45CC6CC(CC(C6)C4)C5)c(F)c3)c2cc1C(N)=O`, for which the viability at 0.0333 µM in [1] came to 90.8%. In addition, the IC50 in [2] came out at 24.4 nM; in experiment [3] it was 15.4 nM; in experiment [4], 6.1 nM; in experiment [5], 53.1 nM. Moreover, the inhibition result in experiment [6], in experiment [14] and in [17] was “Active” each time. In experiment [7], the viability at 0.1 µM was 80.2%. For the same molecule, in experiment [8], the viability at 0.3 µM was 43.1%. In addition, the Activity stood at 6.47% in experiment [9]; 0.17% in experiment [10]; 1.8% in experiment [11]; 32.67% in [12]; 0.24% in experiment [13]. The inhibition entry in [15] and in experiment [16] was “Dose-Dependent Effect” each time.
